Experimental data as given in publication PMC3265452 (PLoS Neglected Tropical Diseases, 2012).
Where a name gives a salt, the structure may show the parent alone.

target: AaDOP2 (Aedes aegypti, UniProt H6D5H2); test: AaDOP2 antagonist screen of the LOPAC1280 library (HEK-CRELuc-Aadop2 cells, luminescence); format: cell-based; conditions: not given
Sequence (H6D5H2 1-476): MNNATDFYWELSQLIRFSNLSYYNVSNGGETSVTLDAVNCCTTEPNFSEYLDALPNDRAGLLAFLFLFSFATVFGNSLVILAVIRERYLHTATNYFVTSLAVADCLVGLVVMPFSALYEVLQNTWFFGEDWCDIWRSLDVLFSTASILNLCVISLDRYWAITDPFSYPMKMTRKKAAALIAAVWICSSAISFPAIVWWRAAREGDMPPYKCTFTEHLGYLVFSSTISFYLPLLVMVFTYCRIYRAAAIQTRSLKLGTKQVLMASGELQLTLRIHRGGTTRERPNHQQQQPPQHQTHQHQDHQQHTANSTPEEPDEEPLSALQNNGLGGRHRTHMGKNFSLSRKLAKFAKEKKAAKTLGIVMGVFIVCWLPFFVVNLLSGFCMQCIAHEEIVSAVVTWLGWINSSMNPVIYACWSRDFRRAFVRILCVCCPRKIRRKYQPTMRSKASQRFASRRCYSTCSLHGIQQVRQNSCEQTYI

Point of comparison: CCC1(c2ccc(N)cc2)CCC(=O)NC1=O (racemic) [Compound 109, (±)-p-Aminoglutethimide], “Compound effect (percent receptor signaling in presence of test compound, relative lux units relative to the SCH23390 control)” value 106. Against it:
- C=CCn1c(=O)c2c(nc(-c3ccc(S(=O)(=O)O)cc3)n2C)n(C)c1=O [Compound 129, 1-Allyl-3,7-dimethyl-8-p-sulfophenylxanthine] — lower, 100
- CCCn1c(=O)c2[nH]c(C3CCCC3)nc2n(CCC)c1=O [Compound 327, 8-Cyclopentyl-1,3-dipropylxanthine] — higher, 111
- C[C@H](Cc1ccc2c(c1)OC(C(=O)O)(C(=O)O)O2)NC[C@H](O)c1cccc(Cl)c1 [Compound 278, CL 316,243] — lower, 101
- COc1cc2c(cc1O)CC[C@@H]1[C@@H]2CC[C@]2(C)[C@@H](O)CC[C@@H]12 [Compound 786, 2-methoxyestradiol] — lower, 99
- Nc1nc(O)c2ncn(COC(CO)CO)c2n1 [Compound 550, Ganciclovir] — lower, 92
- CC[N+](C)(C)c1cccc(O)c1 [Compound 484, Edrophonium chloride] — higher, 118
- Oc1ccccc1O [Compound 316, Pyrocatechol] — lower, 101
- O=C(O)c1cccnc1C(=O)O [Compound 1027, Quinolinic acid] — lower, 83
- CC(C)[N+](C)(CCOC(=O)C1c2ccccc2Oc2ccccc21)C(C)C [Compound 990, Propantheline bromide] — lower, 71
- CC(C)Cc1ccc([C@H](C)C(=O)O)cc1 [Compound 666, S(+)-Ibuprofen] — lower, 102
- CN1CCC[C@H]1c1cccnc1.O=C(O)C(O)C(O)C(=O)O.O=C(O)C(O)C(O)C(=O)O [Compound 857, (-)-Nicotine hydrogen tartrate salt] — lower, 92
- C=C(C)[C@H]1CN[C@H](C(=O)O)[C@H]1CC(=O)O [Compound 682, Kainic acid] — lower, 98
- O=C(O)CCCc1ccc(N(CCCl)CCCl)cc1 [Compound 215, Chlorambucil] — the same, 106
- Cn1c(=O)c2[nH]c(C3CCCC3)nc2n(C)c1=O [Compound 328, 8-Cyclopentyl-1,3-dimethylxanthine] — lower, 93
- CC(=O)C(C)=NO [Compound 153, 2,3-Butanedione monoxime] — higher, 131
- Cl.NNC(N)=O [Compound 1086, Semicarbazide hydrochloride] — higher, 107
- Br.NCc1cc(O)no1 [Compound 564, Muscimol hydrobromide] — higher, 130
- O=C1NCN(c2ccccc2)C12CCN(CC1COc3ccccc3O1)CC2 (centres unmarked) [Compound 1131, Spiroxatrine] — lower, 90
- C[C@H]1c2cccc(O)c2C(=O)C2=C(O)[C@]3(O)C(=O)C(C(N)=O)=C(O)[C@@H](N(C)C)[C@@H]3[C@@H](O)[C@@H]21 [Compound 433, Doxycycline hydrochloride] — lower, 103
- COC(=O)[C@H](NC(=O)c1cc(-c2ccccc2)nc2ccccc12)c1ccccc1 [Compound 591, SB 218795] — lower, 98
- NCCNC(=O)Cc1ccc(NC(=O)Cc2ccc(Nc3ncnc4c3ncn4[C@@H]3O[C@H](CO)[C@@H](O)[C@H]3O)cc2)cc1 [Compound 122, Adenosine amine congener] — lower, 105
- Cl.Nc1c2c(nc3ccccc13)CCCC2 [Compound 44, 9-Amino-1,2,3,4-tetrahydroacridine hydrochloride] — higher, 206
- NNC(=O)c1ccc(O)cc1 [Compound 617, 4-Hydroxybenzhydrazide] — lower, 78
- COc1ccc(C2CNC(=O)C2)cc1OC1CCCC1 (centres unmarked) [Compound 1052, Rolipram] — higher, 118
- CC(C)C(=O)c1c(C(C)C)nn2ccccc12 [Compound 628, Ibudilast] — higher, 136
- O=C(O)c1nn(Cc2ccc(Cl)cc2Cl)c2ccccc12 [Compound 704, Lonidamine] — lower, 90
- CCn1ccnc1CC1COc2ccccc2O1 (centres unmarked) [Compound 663, Imiloxan hydrochloride] — lower, 96
- CC1=C(C(=O)O)N2C(=O)[C@@H](NC(=O)[C@H](N)C3=CCC=CC3)[C@H]2SC1 [Compound 309, Cephradine] — lower, 79
- N[C@H](C(=O)O)c1cc(O)cc(O)c1 [Compound 377, (S)-3,5-Dihydroxyphenylglycine] — lower, 93

same assay, conditions: 10 µM compound, 300 nM dopamine, 2 hr; hit = compound effect <20

Point of comparison: CC(C)N(CCC(=O)c1ccc2ccccc2c1)Cc1ccccc1.Cl [Compound 829, ZM 39923 hydrochloride], “Compound effect (percent receptor signaling in presence of test compound, relative lux units relative to the SCH23390 control)” value 83%. Against it:
- NC1CONC1=O (racemic) [Compound 291, DL-Cycloserine] — higher, 94%
- Cl.Cl.Cl.Ic1ccc(N2CCN(Cc3c[nH]c4ncccc34)CC2)cc1 [Compound 729, L-750,667 trihydrochloride] — higher, 107%
- NCC(CC(=O)O)c1ccc(Cl)cc1 (racemic) [Compound 177, (±)-Baclofen] — higher, 111%
- OC[C@H]1O[C@@H](n2cnc3c(N[C@H]4CC5CCC4C5)ncnc32)[C@H](O)[C@@H]1O (stereo partly drawn) [Compound 506, (S)-ENBA] — higher, 112%
- CCN1CCc2nc(N)oc2CC1.Cl.Cl [Compound 210, B-HT 933 dihydrochloride] — lower, 79%
- Cl.c1ccc(CN(CC2=NCCN2)c2ccccc2)cc1 [Compound 115, Antozoline hydrochloride] — higher, 115%
- CCCCCCC(C(C)O)n1cnc2c(N)ncnc21.Cl (stereo not drawn) [Compound 507, erythro-9-(2-Hydroxy-3-nonyl)adenine hydrochloride] — higher, 128%
